# Source: US9738612B2, “Methylacryloyl benzimidazolone derivative and anti-tumour use thereof” (SHANGHAI NATURE STANDARD R&D AND BIOTECH CO., LTD, priority 2014, dated 2017)
# Assays:
# Assay in all cases: Tumor-associated kinase inhibition test
# Format in all cases: biochemical
# Settings in all cases: read-out: Inhibitory rate (%)
# CDK2/cyclinA(h) = molecular target: T1, CDK2/cyclinA(h) (Homo sapiens, UniProt P24941)
# T1 construct: purchased Eurofins Pharma Discovery Services UK Limited (contract assay service)
# Source text: (§1) Eurofins Pharma Discovery Services UK Limited completed and reported this experiment.
# GSK3β(h) = molecular target: T2, GSK3β(h) (Homo sapiens, UniProt P49841)
# T2 construct: purchased Eurofins Pharma Discovery Services UK Limited (contract testing)
# Source text: as §1
# Itk(h) = molecular target: T3, Itk(h) (Homo sapiens, UniProt Q08881)
# T3 construct: purchased Eurofins Pharma Discovery Services UK Limited (contract testing)
# Source text: as §1
# PI3KC2γ(h) = molecular target: T4, PI3KC2γ(h) (Homo sapiens, UniProt O75747)
# T4 construct: purchased Eurofins Pharma Discovery Services UK Limited (contract assay)
# Source text: as §1
# MARK1(h) = molecular target: T5, MARK1(h) (Homo sapiens, UniProt Q9P0L2)
# T5 construct: purchased Eurofins Pharma Discovery Services UK Limited
# T5 sequence (Q9P0L2 whole entry): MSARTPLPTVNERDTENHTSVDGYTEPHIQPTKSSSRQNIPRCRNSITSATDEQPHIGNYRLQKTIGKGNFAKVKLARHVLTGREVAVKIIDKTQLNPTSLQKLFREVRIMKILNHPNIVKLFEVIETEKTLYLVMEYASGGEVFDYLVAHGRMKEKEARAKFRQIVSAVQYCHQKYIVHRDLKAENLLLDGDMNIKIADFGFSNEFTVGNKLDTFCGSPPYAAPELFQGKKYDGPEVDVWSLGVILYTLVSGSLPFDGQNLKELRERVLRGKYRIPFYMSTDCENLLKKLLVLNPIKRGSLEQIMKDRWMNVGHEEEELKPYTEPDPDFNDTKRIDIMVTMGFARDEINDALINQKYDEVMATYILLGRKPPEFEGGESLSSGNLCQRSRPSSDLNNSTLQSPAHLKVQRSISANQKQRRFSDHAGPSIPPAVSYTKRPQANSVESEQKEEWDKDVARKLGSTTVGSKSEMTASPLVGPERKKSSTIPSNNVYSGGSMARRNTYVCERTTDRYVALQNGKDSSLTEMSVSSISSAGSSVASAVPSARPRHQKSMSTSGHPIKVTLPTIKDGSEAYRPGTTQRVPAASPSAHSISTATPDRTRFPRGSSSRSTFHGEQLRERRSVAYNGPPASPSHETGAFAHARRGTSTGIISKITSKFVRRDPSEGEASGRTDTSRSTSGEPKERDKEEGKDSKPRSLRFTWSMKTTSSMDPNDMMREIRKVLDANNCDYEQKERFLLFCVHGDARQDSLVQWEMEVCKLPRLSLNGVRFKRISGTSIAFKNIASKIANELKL
# Source text: as §1
# [1] = molecular target: T6, PI3Kinase(p110α(E542K)/p85α)(h) (Homo sapiens, UniProt P42336, E542K)
# T6 construct: purchased Eurofins Pharma Discovery Services UK Limited (contract assay)
# T6 sequence (P42336 whole entry E542K): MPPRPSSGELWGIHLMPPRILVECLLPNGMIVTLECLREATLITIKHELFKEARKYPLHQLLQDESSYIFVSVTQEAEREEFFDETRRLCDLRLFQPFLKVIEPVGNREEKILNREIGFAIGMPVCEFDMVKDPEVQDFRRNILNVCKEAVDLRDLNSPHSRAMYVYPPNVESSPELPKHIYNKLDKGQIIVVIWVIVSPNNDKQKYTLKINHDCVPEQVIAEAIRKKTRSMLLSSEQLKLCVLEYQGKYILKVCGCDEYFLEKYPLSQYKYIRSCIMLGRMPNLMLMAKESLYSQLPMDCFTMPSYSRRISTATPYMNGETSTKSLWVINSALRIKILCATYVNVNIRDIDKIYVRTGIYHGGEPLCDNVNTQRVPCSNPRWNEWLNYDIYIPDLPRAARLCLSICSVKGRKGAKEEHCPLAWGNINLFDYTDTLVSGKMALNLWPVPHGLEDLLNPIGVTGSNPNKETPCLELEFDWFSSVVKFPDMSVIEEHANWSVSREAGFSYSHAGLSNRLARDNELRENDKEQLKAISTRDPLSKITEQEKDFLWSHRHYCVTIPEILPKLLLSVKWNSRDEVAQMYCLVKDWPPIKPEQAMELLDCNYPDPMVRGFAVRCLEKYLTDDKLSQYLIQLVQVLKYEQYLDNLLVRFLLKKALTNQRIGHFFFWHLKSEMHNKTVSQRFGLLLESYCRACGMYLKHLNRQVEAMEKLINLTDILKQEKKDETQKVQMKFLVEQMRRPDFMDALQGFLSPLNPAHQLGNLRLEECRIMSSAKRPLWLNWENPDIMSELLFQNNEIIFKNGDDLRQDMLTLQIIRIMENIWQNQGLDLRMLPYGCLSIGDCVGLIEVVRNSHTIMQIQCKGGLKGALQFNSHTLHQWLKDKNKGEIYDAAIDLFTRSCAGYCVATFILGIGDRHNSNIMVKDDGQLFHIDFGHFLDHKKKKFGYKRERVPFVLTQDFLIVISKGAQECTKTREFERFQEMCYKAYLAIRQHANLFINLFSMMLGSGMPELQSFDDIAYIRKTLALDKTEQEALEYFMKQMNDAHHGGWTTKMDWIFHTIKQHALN
# T6 sequence (P27986 whole entry partner): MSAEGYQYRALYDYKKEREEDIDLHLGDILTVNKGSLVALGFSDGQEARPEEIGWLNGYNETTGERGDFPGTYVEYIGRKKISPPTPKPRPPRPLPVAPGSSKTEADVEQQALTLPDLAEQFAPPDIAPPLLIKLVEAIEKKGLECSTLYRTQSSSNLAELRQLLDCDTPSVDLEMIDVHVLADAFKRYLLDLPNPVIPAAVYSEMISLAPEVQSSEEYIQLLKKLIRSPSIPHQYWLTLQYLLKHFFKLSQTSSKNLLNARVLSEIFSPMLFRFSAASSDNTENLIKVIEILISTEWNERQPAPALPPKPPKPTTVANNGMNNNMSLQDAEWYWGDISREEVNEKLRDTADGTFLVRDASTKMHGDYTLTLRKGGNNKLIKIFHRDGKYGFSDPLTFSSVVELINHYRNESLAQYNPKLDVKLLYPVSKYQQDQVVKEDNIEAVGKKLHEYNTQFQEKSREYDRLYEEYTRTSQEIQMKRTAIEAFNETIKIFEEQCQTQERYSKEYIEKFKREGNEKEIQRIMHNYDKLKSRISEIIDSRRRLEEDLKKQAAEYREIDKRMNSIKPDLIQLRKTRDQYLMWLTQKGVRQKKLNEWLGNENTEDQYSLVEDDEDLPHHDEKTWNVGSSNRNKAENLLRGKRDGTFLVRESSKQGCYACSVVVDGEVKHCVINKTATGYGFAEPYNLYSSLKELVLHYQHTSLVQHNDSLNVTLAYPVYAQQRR
# Source text: as §1
# PAR-1Bα(h) = molecular target: T7, PAR-1Bα(h) (Homo sapiens, UniProt Q7KZI7)
# T7 construct: purchased Eurofins Pharma Discovery Services UK Limited
# Source text: as §1
# PIP5K1α(h) = molecular target: T8, PIP5K1α(h) (Homo sapiens, UniProt Q99755)
# T8 construct: purchased Eurofins Pharma Discovery Services UK Limited (contract assay)
# Source text: as §1
# PKCα(h) = molecular target: T9, PKCα(h) (Homo sapiens, UniProt P17252)
# T9 construct: purchased Eurofins Pharma Discovery Services UK Limited
# Source text: as §1
# PKBα(h) = molecular target: T10, PKBα(h) (Homo sapiens, UniProt P31749)
# T10 construct: purchased Eurofins Pharma Discovery Services UK Limited
# Source text: as §1
# JNK1α1(h) = molecular target: T11, JNK1α1(h) (Homo sapiens, UniProt P45983)
# T11 construct: purchased Eurofins Pharma Discovery Services UK Limited (contract testing)
# Source text: as §1
# Axl(h) = molecular target: T12, Axl(h) (Homo sapiens, UniProt P30530)
# T12 construct: purchased Eurofins Pharma Discovery Services UK Limited (contract assay service)
# Source text: as §1
# CDK3/cyclinE(h) = molecular target: T13, CDK3/cyclinE(h) (Homo sapiens, UniProt Q00526)
# T13 construct: purchased Eurofins Pharma Discovery Services UK Limited (contract assay service)
# Source text: as §1
# MAPK1(h) = molecular target: T14, MAPK1(h) (Homo sapiens, UniProt P27361)
# T14 construct: purchased Eurofins Pharma Discovery Services UK Limited
# Source text: as §1
# DYRK2(h) = molecular target: T15, DYRK2(h) (Homo sapiens, UniProt Q92630)
# T15 construct: purchased Eurofins Pharma Discovery Services UK Limited (contract testing)
# Source text: as §1
# cSRC(h) = molecular target: T16, cSRC(h) (Homo sapiens, UniProt P12931)
# T16 construct: purchased Eurofins Pharma Discovery Services UK Limited (contract testing)
# T16 sequence (P12931 whole entry): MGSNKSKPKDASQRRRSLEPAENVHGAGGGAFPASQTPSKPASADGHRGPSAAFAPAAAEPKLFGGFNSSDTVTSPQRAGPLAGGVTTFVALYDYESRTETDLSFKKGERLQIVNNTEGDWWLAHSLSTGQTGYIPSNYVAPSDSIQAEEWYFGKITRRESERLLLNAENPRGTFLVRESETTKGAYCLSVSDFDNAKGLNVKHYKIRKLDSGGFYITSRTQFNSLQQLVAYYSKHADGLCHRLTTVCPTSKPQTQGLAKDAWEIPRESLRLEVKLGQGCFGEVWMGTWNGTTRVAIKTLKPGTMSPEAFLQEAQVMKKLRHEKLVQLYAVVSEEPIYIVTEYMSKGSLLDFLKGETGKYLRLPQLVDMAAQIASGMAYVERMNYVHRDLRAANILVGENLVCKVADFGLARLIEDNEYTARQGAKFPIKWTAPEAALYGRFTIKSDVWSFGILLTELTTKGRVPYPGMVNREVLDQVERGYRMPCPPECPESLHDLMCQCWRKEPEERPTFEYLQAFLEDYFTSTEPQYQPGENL
# Source text: as §1
# Fms(h) = molecular target: T17, Fms(h) (Homo sapiens, UniProt P07333)
# T17 construct: purchased Eurofins Pharma Discovery Services UK Limited (contract testing)
# Source text: as §1
# Plk1(h) = molecular target: T18, Plk1(h) (Homo sapiens, UniProt P53350)
# T18 construct: purchased Eurofins Pharma Discovery Services UK Limited
# T18 sequence (P53350 whole entry): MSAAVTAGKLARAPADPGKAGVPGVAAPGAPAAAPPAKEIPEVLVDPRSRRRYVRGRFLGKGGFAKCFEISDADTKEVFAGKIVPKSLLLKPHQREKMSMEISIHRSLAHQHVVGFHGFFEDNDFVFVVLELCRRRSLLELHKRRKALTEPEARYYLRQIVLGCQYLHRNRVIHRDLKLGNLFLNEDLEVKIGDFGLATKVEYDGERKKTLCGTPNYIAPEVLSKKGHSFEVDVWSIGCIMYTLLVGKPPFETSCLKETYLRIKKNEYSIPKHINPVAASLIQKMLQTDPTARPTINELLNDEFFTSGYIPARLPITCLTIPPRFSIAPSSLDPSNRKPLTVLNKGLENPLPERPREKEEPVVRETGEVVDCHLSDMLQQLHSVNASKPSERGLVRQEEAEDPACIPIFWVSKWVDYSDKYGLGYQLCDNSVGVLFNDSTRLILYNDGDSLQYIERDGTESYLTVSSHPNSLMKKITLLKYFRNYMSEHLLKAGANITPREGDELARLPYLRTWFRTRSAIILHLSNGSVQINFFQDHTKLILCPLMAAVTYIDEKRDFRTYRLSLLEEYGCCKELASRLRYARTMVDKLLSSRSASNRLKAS
# Source text: as §1
# CaMKIIβ(h) = molecular target: T19, CaMKIIβ(h) (Homo sapiens, UniProt Q13554)
# T19 construct: purchased Eurofins Pharma Discovery Services UK Limited (contract assay service)
# Source text: as §1
# Blk(h) = molecular target: T20, Blk(h) (Homo sapiens, UniProt P51451)
# T20 construct: purchased Eurofins Pharma Discovery Services UK Limited (contract assay service)
# Source text: as §1
# FGFR1(h) = molecular target: T21, FGFR1(h) (Homo sapiens, UniProt P11362)
# T21 construct: purchased Eurofins Pharma Discovery Services UK Limited (contract testing)
# Source text: as §1
# Rsk3(h) = molecular target: T22, Rsk3(h) (Homo sapiens, UniProt Q15349)
# T22 construct: purchased Eurofins Pharma Discovery Services UK Limited
# Source text: as §1
# Tie2(h) = molecular target: T23, Tie2(h) (Homo sapiens, UniProt Q02763)
# T23 construct: purchased Eurofins Pharma Discovery Services UK Limited
# Source text: as §1
# IGF-1R(h), activated = molecular target: T24, IGF-1R(h), activated (Homo sapiens, UniProt P08069)
# T24 construct: purchased Eurofins Pharma Discovery Services UK Limited (contract testing)
# Source text: as §1
# KDR(h) = molecular target: T25, KDR(h) (Homo sapiens, UniProt P35968)
# T25 construct: purchased Eurofins Pharma Discovery Services UK Limited
# Source text: as §1
# EphB2(h) = molecular target: T26, EphB2(h) (Homo sapiens, UniProt P29323)
# T26 construct: purchased Eurofins Pharma Discovery Services UK Limited (contract testing)
# Source text: as §1
# CK1δ(h) = molecular target: T27, CK1δ(h) (Homo sapiens, UniProt P48730)
# T27 construct: purchased Eurofins Pharma Discovery Services UK Limited (contract testing)
# Source text: as §1
# Aurora-A(h) = molecular target: T28, Aurora-A(h) (Homo sapiens, UniProt O14965)
# T28 construct: purchased Eurofins Pharma Discovery Services UK Limited (contract assay service)
# T28 sequence (O14965 whole entry): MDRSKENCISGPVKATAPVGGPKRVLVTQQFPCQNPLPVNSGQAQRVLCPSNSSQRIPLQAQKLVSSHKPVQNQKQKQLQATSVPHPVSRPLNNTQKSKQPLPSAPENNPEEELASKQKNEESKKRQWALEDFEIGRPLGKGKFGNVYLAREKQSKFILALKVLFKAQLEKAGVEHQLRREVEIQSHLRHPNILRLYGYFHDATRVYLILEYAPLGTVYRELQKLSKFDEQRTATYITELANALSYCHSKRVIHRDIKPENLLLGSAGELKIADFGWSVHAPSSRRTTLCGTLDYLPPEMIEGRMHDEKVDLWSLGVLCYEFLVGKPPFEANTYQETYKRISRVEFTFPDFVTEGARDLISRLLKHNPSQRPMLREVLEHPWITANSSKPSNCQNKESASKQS
# Source text: as §1
# Ros(h) = molecular target: T29, Ros(h) (Homo sapiens, UniProt P08922)
# T29 construct: purchased Eurofins Pharma Discovery Services UK Limited
# Source text: as §1
# FAK(h) = molecular target: T30, FAK(h) (Homo sapiens, UniProt Q05397)
# T30 construct: purchased Eurofins Pharma Discovery Services UK Limited (contract testing)
# Source text: as §1
# PI3Kinase(p110α/p65α)(h) = molecular target: T31, PI3Kinase(p110α/p65α)(h) (Homo sapiens, UniProt P42336)
# T31 construct: purchased Eurofins Pharma Discovery Services UK Limited (contract assay)
# T31 sequence (P42336 whole entry): as the sequence (P42336 whole entry E542K) above, with K542E counted along it
# Source text: as §1
# PKCθ(h) = molecular target: T32, PKCθ(h) (Homo sapiens, UniProt Q04759)
# T32 construct: purchased Eurofins Pharma Discovery Services UK Limited
# Source text: as §1
# MAPK2(h) = molecular target: T33, MAPK2(h) (Homo sapiens, UniProt P28482)
# T33 construct: purchased Eurofins Pharma Discovery Services UK Limited
# Source text: as §1
# [2] = molecular target: T34, PI3Kinase(p110α(H1047R)/p85α)(h) (Homo sapiens, UniProt P42336, H1047R)
# T34 construct: purchased Eurofins Pharma Discovery Services UK Limited (contract assay)
# T34 sequence (P42336 whole entry H1047R): as the sequence (P42336 whole entry E542K) above, with K542E, H1047R counted along it
# T34 sequence (P27986 whole entry partner): as the sequence (P27986 whole entry partner) above
# Source text: as §1
# PKBγ(h) = molecular target: T35, PKBγ(h) (Homo sapiens, UniProt Q9Y243)
# T35 construct: purchased Eurofins Pharma Discovery Services UK Limited
# Source text: as §1
# Fes(h) = molecular target: T36, Fes(h) (Homo sapiens, UniProt P07332)
# T36 construct: purchased Eurofins Pharma Discovery Services UK Limited (contract testing)
# Source text: as §1
# CK2(h) = molecular target: T37, CK2(h) (Homo sapiens, UniProt P68400)
# T37 construct: purchased Eurofins Pharma Discovery Services UK Limited (contract testing)
# T37 sequence (P68400 whole entry): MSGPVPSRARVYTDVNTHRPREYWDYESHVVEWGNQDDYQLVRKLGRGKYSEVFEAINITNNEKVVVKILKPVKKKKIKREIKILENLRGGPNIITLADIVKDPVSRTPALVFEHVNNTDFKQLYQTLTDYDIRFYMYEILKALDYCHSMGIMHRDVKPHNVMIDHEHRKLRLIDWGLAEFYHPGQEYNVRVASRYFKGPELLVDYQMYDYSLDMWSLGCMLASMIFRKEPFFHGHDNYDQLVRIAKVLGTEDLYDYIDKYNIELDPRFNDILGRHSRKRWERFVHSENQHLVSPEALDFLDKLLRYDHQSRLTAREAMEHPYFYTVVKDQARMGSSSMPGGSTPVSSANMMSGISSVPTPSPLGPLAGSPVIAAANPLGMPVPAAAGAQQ
# T37 sequence (P67870 whole entry partner): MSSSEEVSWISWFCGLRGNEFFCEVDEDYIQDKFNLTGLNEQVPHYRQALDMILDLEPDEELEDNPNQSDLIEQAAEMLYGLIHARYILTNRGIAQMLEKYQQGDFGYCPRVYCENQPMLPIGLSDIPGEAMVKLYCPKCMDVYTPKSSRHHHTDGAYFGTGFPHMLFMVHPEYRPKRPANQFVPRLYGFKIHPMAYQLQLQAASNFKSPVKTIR
# Source text: as §1
# ALK(h) = molecular target: T38, ALK(h) (Homo sapiens, UniProt Q9UM73)
# T38 construct: purchased Eurofins Pharma Discovery Services UK Limited (contract assay service)
# Source text: as §1
# CDK5/p35(h) = molecular target: T39, CDK5/p35(h) (Homo sapiens, UniProt Q00535)
# T39 construct: purchased Eurofins Pharma Discovery Services UK Limited (contract assay service)
# Source text: as §1
smiles,measurement,setting,value
C=C(C)n1c(=O)n(C(C)=O)c2ncc(Br)cc21 [FD162],inhibition at 10 µM,CDK2/cyclinA(h),-2%
same,inhibition at 10 µM,GSK3β(h),6%
same,inhibition at 10 µM,Itk(h),-7%
same,inhibition at 10 µM,PI3KC2γ(h),3%
same,inhibition at 10 µM,MARK1(h),-1%
same,inhibition at 10 µM,[1],4%
same,inhibition at 10 µM,PAR-1Bα(h),6%
same,inhibition at 10 µM,PIP5K1α(h),-2%
same,inhibition at 10 µM,PKCα(h),24%
same,inhibition at 10 µM,PKBα(h),4%
same,inhibition at 10 µM,JNK1α1(h),4%
same,inhibition at 10 µM,Axl(h),24%
same,inhibition at 10 µM,CDK3/cyclinE(h),7%
same,inhibition at 10 µM,MAPK1(h),8%
same,inhibition at 10 µM,DYRK2(h),1%
same,inhibition at 10 µM,cSRC(h),-4%
same,inhibition at 10 µM,Fms(h),-9%
same,inhibition at 10 µM,Plk1(h),7%
same,inhibition at 10 µM,CaMKIIβ(h),2%
same,inhibition at 10 µM,Blk(h),-5%
same,inhibition at 10 µM,FGFR1(h),4%
same,inhibition at 10 µM,Rsk3(h),2%
same,inhibition at 10 µM,Tie2(h),14%
same,inhibition at 10 µM,"IGF-1R(h), activated",0%
same,inhibition at 10 µM,KDR(h),-1%
same,inhibition at 10 µM,EphB2(h),7%
same,inhibition at 10 µM,CK1δ(h),7%
same,inhibition at 10 µM,Aurora-A(h),1%
same,inhibition at 10 µM,Ros(h),-13%
same,inhibition at 10 µM,FAK(h),1%
same,inhibition at 10 µM,PI3Kinase(p110α/p65α)(h),3%
same,inhibition at 10 µM,PKCθ(h),-3%
same,inhibition at 10 µM,MAPK2(h),-6%
same,inhibition at 10 µM,[2],3%
same,inhibition at 10 µM,PKBγ(h),8%
same,inhibition at 10 µM,Fes(h),-8%
same,inhibition at 10 µM,CK2(h),15%
same,inhibition at 10 µM,ALK(h),16%
same,inhibition at 10 µM,CDK5/p35(h),0%
